Assay [1] deals with Phospho-Rb (Ser807/811) in MCF7 cells. The experiment in a line: Phospho-Rb expression inhibition in MCF7 cells quantified by in cell Western. The settings on record: Homo sapiens, MCF7, 24 h, 24 hours, in cell Western, read-out: MCF7 pRb IC50. The format is cell-based, human. As for the experimental part:
MCF7 cells were obtained from American Type Culture Collection (ATCC, HTB-22). MCF7 cells were plated in 96-well plates (VWR #10062-900, or Coming #3904) in 90 μL culture medium at a density of 20,000 cells/well in the DMEM growth medium containing 10%/FBS and 1% Penicillin Streptomycin, and then incubated at 37° C. overnight. The following day, the test compound was administered to the cells by using 1000× compound stock solution prepared in DMSO at various concentrations. 1000× compound stock solution was first diluted in culturing medium to 10×, then 10 μL compound medium was added to each well in the cell plates. After administration of the compound, the cells were then incubated at 37° C. for 24 h. Upon completion, the cells were washed with PBS briefly. 150 μL/well of 4% formaldehyde was added and the plates were incubated at room temperature for 20 min. The cells were washed with PBS briefly, and permeabilized with 150 µL/well of ice cold 100% methanol for 10 min. The cells were washed with PBS briefly and blocked with 100 µL/well LI-COR blocking buffer for 1 h at room temperature with gentle shaking. The cells were incubated overnight at 4° C. with 50 μL primary antibody rabbit anti-Phospho-Rb (Ser807/811) (1: 500, Cell Signaling, #8516) and anti-Rb (1:200, Santa Cruz, sc-73598) diluted in Intercept Blocking Buffer (LI-COR, #927-60001) containing 0.1% Tween 20. The next day, the cells were washed with 200 μL PBS containing 0.1% Tween 20, 5×5 mins at room temperature with gentle shaking, and incubated with 50 μL secondary antibody, IRDye® 800CW Goat anti-Rabbit IgG (1:1000, LI-COR, #926-32211) and FRDye® 680RD Goat anti-Mouse IgG (1:1000, LI-COR, #926-68070), in LI-COR […] blocking buffer with 0.2% Tween 20 for 1 h at room temperature with gentle shaking. The cells were washed with 200 μL PBS containing 0.1% Tween 20, 5×5 min at room temperature with gentle shaking. The cells were washed with PBS for 5 mins. 100 μL fresh PBS was added to each well and the plates were imaged on a LI-COR Odyssey CLX plate reader.
MCF7 cells were obtained from American Type Culture Collection (ATCC, HTB-22). SW1573-CDK6 KO and SW1573-CDK4 KO cells were generated by the CRISPR-Cas9 technology. All cells were plated in 96-well plates (VWR #10062-900, or Corning #3904) in 90 uL culture medium at a density of 20,000 cells/well in the respective growth medium containing 10% FBS and 1% Penicillin Streptomycin, and then incubated at 37° C. overnight. The following day, the test compound was administered to the cells by using 1000× compound stock solution prepared in DMSO at various concentrations. 1000× compound stock solution was first diluted in culturing medium to 10×, then 10 uL compound medium was added to each well in the cell plates. After administration of the compound, the cells were then incubated at 37° C. for 24 hours. Upon completion, the cells were washed with PBS briefly. 150 uL/well of 4% formaldehyde was added and the plates were incubated at room temperature for 20 mins. The cells were washed with PBS briefly, and permeabilized with 150 uL/well of ice cold 100% methanol for 10 mins. The cells were washed with PBS briefly and blocked with 100 uL/well LI-COR blocking buffer for 1 hr at room temperature with gentle shaking. The cells were incubated overnight at 4° C. with 50 uL primary antibody rabbit anti-Phospho-Rb (Ser807/811) (1: 500, Cell Signaling, #8516) and anti-Rb (1:200, Santa Cruz, sc-73598) diluted in Intercept Blocking Buffer (LI-COR, #927-60001) containing 0.1% Tween 20. The next day, the cells were washed with 200 uL PBS containing 0.1% Tween 20, 5×5 mins at room temperature with gentle shaking, and incubated with 50 uL secondary antibody, IRDye® 800CW Goat anti-Rabbit IgG (1:1000, LI-COR, #926-32211) and IRDye®680RD Goat anti-Mouse IgG (1:1000, LI-COR, #926-68070), in LI-COR blocking buffer with 0.2% Tween 20 for 1 hr at room temperature with gentle shaking. […]

The test system of a further assay is 22RV1 cells. The experiment in a line: Cell growth inhibition of 22RV1 cells (CellTiter-Glo). The settings on record: Homo sapiens, 22Rv1, 120 h, 5 days, CellTiter-Glo, read-out: 22RV1 Cell Growh GI50. The format is cell-based. How it is done: For cell growth assay, 22RV1 (ATCC, CRL-2505) cells were seeded in 96-well plates at 1000 cells/well in 90 μl of RPMI1640 growth medium containing 20% FBS and 1% Penicillin Streptomycin, and then incubated at 37° C. overnight. The following day, the test compound was administered to the cells by using 1000× compound stock solution prepared in DMSO at various concentrations. 1000× compound stock solution was first diluted in culturing medium to 10×, then 10 uL compound medium was added to each well in the cell plates. After administration of the compound, the cells were then incubated at 37° C. for 5 days. Upon completion, the plates were equilibrated at room temperature for approximately 10 min. 100 μl of CellTiter-Glo® Reagent (Promega) was added to each well. The plates were then incubated at room temperature for 10 min and luminescence was recorded by EnSpire plate reader (PerkinElmer).
22RV1 cells were obtained from American Type Culture Collection (ATCC, CRL-2505). 22RV1 cells were seeded in 96-well plates at 1000 cells/well in 90 μL of RPMI1640 growth medium containing 10% FBS and 1% Penicillin Streptomycin, and then incubated at 37° C. overnight. The following day, the test compound was administered to the cells by using 1000× compound stock solution prepared in DMSO at various concentrations. […], then 10 uL compound medium was added to each well in the cell plates. After administration of the compound, the cells were then incubated at […] for 5 days. Upon completion, the plates were equilibrated at room temperature for approximately 10 minutes. 100 μL of CellTiter-Glo® Reagent (Promega) was added to each well. The plates were then incubated at room temperature for 10 minutes and luminescence was recorded by EnSpire plate reader (PerkinElmer).
Background: Cellular ATP, detected with luciferase, serves as a proxy for viable cell number.

What is called IC50 is the midpoint of a concentration-inhibition curve. For orientation: GI50 means the concentration that inhibits growth by half. In the case of `CC(C)n1c(C(F)(F)CO)nc2c(F)cc(-c3nc(N[C@@H]4C[C@H]5CO[C@H](O5)[C@H]4O)ncc3Cl)cc21` [Compound 176, (1S,3R,4S,5R)-3-((5-chloro-4-(2-(1,1-difluoro-2-hydroxyethyl)-4-fluoro-1-isopropyl-1H-benzo[d]imidazol-6-yl)pyrimidin-2-yl)amino)-6,8-dioxabicyclo[3.2.1]octan-4-ol], the IC50 in assay [1] fell in the range of 150 to 1000 nM. Also, the GI50 in the assay on 22RV1 cells is 450 to 3000 nM.

Consider `CC(C)(O)c1nc2c(F)cc(-c3nc(N[C@@H]4C[C@H]5CO[C@H](O5)[C@H]4O)ncc3Cl)cc2n1C12CC(C1)C2` [Compound 181, (1S,3R,4S,5R)-3-((4-(1-(bicyclo[1.1.1]pentan-1-yl)-4-fluoro-2-(2-hydroxypropan-2-yl)-1H-benzo[d]imidazol-6-yl)-5-chloropyrimidin-2-yl)amino)-6,8-dioxabicyclo[3.2.1]octan-4-ol], for which the IC50 in assay [1] is 150 to 1000 nM. Further, the GI50 with 22RV1 cells lay within 120 to 450 nM.

In the case of `Cc1nc2c(F)cc(-c3nc(N[C@@H]4C[C@H]5CO[C@H](O5)[C@H]4O)ncc3Cl)cc2n1[C@@H]1CCC[C@@]1(C)O` [Compound 182, (1S,3R,4S,5R)-3-((5-chloro-4-(4-fluoro-1-((1R,2R)-2-hydroxy-2-methylcyclopentyl)-2-methyl-1H-benzo[d]imidazol-6-yl)pyrimidin-2-yl)amino)-6,8-dioxabicyclo[3.2.1]octan-4-ol], in assay [1], the IC50 is 150 to 1000 nM. Further, the GI50 in the assay on 22RV1 cells lay in the range of 120 to 450 nM.

For `CN(C)C(=O)c1cc2c(F)cc(-c3nc(N[C@@H]4C[C@H]5CO[C@H](O5)[C@H]4O)ncc3Cl)cc2n1C1CCCC1` [Compound 183, 6-(5-chloro-2-(((1S,3R,4S,5R)-4-hydroxy-6,8-dioxabicyclo[3.2.1]octan-3-yl)amino)pyrimidin-4-yl)-1-cyclopentyl-4-fluoro-N,N-dimethyl-1H-indole-2-carboxamide], in assay [1], the IC50 was greater than 1000 nM. Moreover, the GI50 with 22RV1 cells is greater than 3000 nM.

With `CC(C)n1c([C@@H]2COC(=O)N2)nc2c(F)cc(-c3nc(N[C@@H]4C[C@H]5CO[C@H](O5)[C@H]4O)ncc3Cl)cc21` [Compound 184, (R)-4-(6-(5-chloro-2-(((1S,3R,4S,5R)-4-hydroxy-6,8-dioxabicyclo[3.2.1]octan-3-yl)amino)pyrimidin-4-yl)-4-fluoro-1-isopropyl-1H-benzo[d]imidazol-2-yl)oxazolidin-2-one], in assay [1], the IC50 lay in the range of 150 to 1000 nM. For the same compound, the GI50 in the assay on 22RV1 cells was 120 to 450 nM.

Take `CC(C)n1c([C@@H]2COC(=O)N2C)nc2c(F)cc(-c3nc(N[C@@H]4C[C@H]5CO[C@H](O5)[C@H]4O)ncc3Cl)cc21` [Compound 185, (R)-4-(6-(5-chloro-2-(((1S,3R,4S,5R)-4-hydroxy-6,8-dioxabicyclo[3.2.1]octan-3-yl)amino)pyrimidin-4-yl)-4-fluoro-1-isopropyl-1H-benzo[d]imidazol-2-yl)-3-methyloxazolidin-2-one]: the IC50 in assay [1] lay within 150 to 1000 nM. In the assay with 22RV1 cells, the 50% growth inhibitory concentration (GI50) was in the range of 450 to 3000 nM.

As to `CC(C)n1c(-c2cn[nH]c2)nc2c(F)cc(-c3nc(N[C@@H]4C[C@H]5CO[C@H](O5)[C@H]4O)ncc3Cl)cc21` [Compound 186, (1S,3R,4S,5R)-3-((5-chloro-4-(4-fluoro-1-isopropyl-2-(1H-pyrazol-4-yl)-1H-benzo[d]imidazol-6-yl)pyrimidin-2-yl)amino)-6,8-dioxabicyclo[3.2.1]octan-4-ol], in assay [1], the half-inhibitory concentration (IC50) fell in the range of 150 to 1000 nM. Moreover, the GI50 in the assay with 22RV1 cells was in the range of 120 to 450 nM.

As to `CC(C)n1c(-c2cnn(C)c2)nc2c(F)cc(-c3nc(N[C@@H]4C[C@H]5CO[C@H](O5)[C@H]4O)ncc3Cl)cc21` [Compound 187, (1S,3R,4S,5R)-3-((5-chloro-4-(4-fluoro-1-isopropyl-2-(1-methyl-1H-pyrazol-4-yl)-1H-benzo[d]imidazol-6-yl)pyrimidin-2-yl)amino)-6,8-dioxabicyclo[3.2.1]octan-4-ol], the half-maximal inhibitory concentration (IC50) in assay [1] lay within 150 to 1000 nM. In the assay with 22RV1 cells, the concentration for 50% growth inhibition (GI50) lay in the range of 120 to 450 nM.

As for `CC(C)c1cn(C)c(=O)c2c(F)cc(-c3nc(N[C@@H]4C[C@H]5CO[C@H](O5)[C@H]4O)ncc3Cl)cc12` [Compound 188, 6-(5-chloro-2-(((1S,3R,4S,5R)-4-hydroxy-6,8-dioxabicyclo[3.2.1]octan-3-yl)amino)pyrimidin-4-yl)-8-fluoro-4-isopropyl-2-methylisoquinolin-1(2H)-one], the IC50 in assay [1] lay within 150 to 1000 nM. The GI50 with 22RV1 cells was 120 to 450 nM.

`Cc1c(-c2nc(N[C@@H]3C[C@H]4CO[C@H](O4)[C@H]3O)ncc2F)sc2c(C(C)C)cn(C)c(=O)c12` [Compound 189, 2-(5-fluoro-2-(((1S,3R,4S,5R)-4-hydroxy-6,8-dioxabicyclo[3.2.1]octan-3-yl)amino)pyrimidin-4-yl)-7-isopropyl-3,5-dimethylthieno[3,2-c]pyridin-4(5H)-one]: the IC50 in assay [1] was no more than 40 nM. In addition, the 50% growth inhibitory concentration (GI50) in the assay with 22RV1 cells is no more than 120 nM.

For `Cc1c(C)n(C(C)C)c2cc(-c3nc(N[C@@H]4C[C@H]5CO[C@H](O5)[C@H]4O)ncc3F)ccc2c1=O` [Compound 190, 7-(5-fluoro-2-(((1S,3R,4S,5R)-4-hydroxy-6,8-dioxabicyclo[3.2.1]octan-3-yl)amino)pyrimidin-4-yl)-1-isopropyl-2,3-dimethylquinolin-4(1H)-one], in assay [1], the IC50 was in the range of 40 to 150 nM. For the same compound, the GI50 in the assay with 22RV1 cells lay in the range of 120 to 450 nM.

Turning to `Cc1c(C(F)F)c(=O)c2ccc(-c3nc(N[C@@H]4C[C@H]5CO[C@H](O5)[C@H]4O)ncc3F)cc2n1C(C)C` [Compound 192, 3-(difluoromethyl)-7-(5-fluoro-2-(((1S,3R,4S,5R)-4-hydroxy-6,8-dioxabicyclo[3.2.1]octan-3-yl)amino)pyrimidin-4-yl)-1-isopropyl-2-methylquinolin-4(1H)-one], in assay [1], the IC50 lay within 150 to 1000 nM. Further, the 50% growth inhibitory concentration (GI50) in the assay on 22RV1 cells was 120 to 450 nM.

For the origin of these results see patent US20250084095A1, “Aminopyrimidine Derivatives as Cyclin-Dependent Kinase Inhibitors” (Accutar Biotechnology Inc., priority 2023, published 2025).
